According to US20250250264A1, “KIF18A INHIBITOR AND USE THEREOF” (Wuhan Humanwell Innovative Drug Research and Development …, priority 2022, published 2025):

Tests used:
[1] = molecular target: recombinant protein KIF18A (kinesin domain: aa 1-467) (Homo sapiens (Human), UniProt Q8NI77); assay: Assay on inhibition of KIF18A enzymatic activity (ADP-Glo); assay type: biochemical; settings: KIF18A 80 nM, ATP 80 μM, 3 h at room temperature, ADP-Glo luminescence; read-out: IC50 (μM), inhibitory effects of compounds on KIF18A enzymatic activity
Description: The recombinant protein KIF18A (kinesin domain: aa 1-467) used in this assay was expressed by the Bac-to-Bac baculovirus expression system from Invitrogen, and the resulting protein was purified for use in this assay (Seki, M. et al. 2003 Nucleic Acids Res.). Quantitative detection of KIF18A enzymatic activity was completed using an ADP-Glo™ kinase assay kit (Promega Inc). Related procedures strictly followed the product instructions, which are briefly described as follows:
The reaction system consisted of a test compound, the recombinant protein KIF18A (aa 1-467), ATP (Promega Inc), and an assay buffer. The test compound was prepared into a 0.5 mM stock solution using DMSO (Sigma Inc) and then serially diluted in DMSO. The assay buffer consisted of an aqueous solution of 15 mM Tris, 10 mM MgCl2 (Sigma Inc), 0.01% Pluronic F-68 (Life Technologies Inc), 1 μM paclitaxel (Cytoskeleton Inc), 30 μg/mL porcine tubulin (Cytoskeleton Inc), and 2% DMSO. The KIF18A protein (final concentration: 80 nM) and the compound at different concentrations (1 μL) were added to the prepared assay buffer (50 μL), and the mixture was incubated at room temperature for 15 min. Then, ATP (final concentration: 80 μM) was added to the reaction mixture, and the resulting mixture was incubated at room temperature for 3 h. After the reaction was completed, 5 μL of the ADP-Glo™ reagent and 2.5 μL of the reaction mixture were added to a 384-well plate (Grenier Inc). The resulting mixture was mixed homogeneously, then sealed by an aluminum foil sealing film, and incubated at room temperature in the dark for 40 min. Finally, 10 μL of the […] was added to each reaction well, and the mixture was incubated at room temperature in the dark for 40 min. After all reactions were completed, the luminescence values of the wells were read on a microplate reader (Molecular Device_SpectraMax Id5), and the inhibition ratios were calculated. The calculation formula for the inhibition rates was as follows: inhibition rate=(1−(compound group−blank group)/(negative control group−blank group))×100%. Then, based on the inhibition rates at different compound concentrations, the IC50 value of the test compound was calculated using the GraphPad Prism 8 software.

NIH:OVCAR-3 cells = assay: Assay on inhibition of OVCAR3 tumor cell proliferation (CellTiter-Glo); assay type: cell-based; settings: Homo sapiens, OVCAR-3, 72 h, 3 days of drug treatment, read-out: IC50 (μM), inhibitory effects of compounds on tumor cell proliferation
Description: NIH:OVCAR-3 cells (ATCC, Cat No. HTB-161, purchased from Co-Bier) were seeded into a T75 culture flask and cultured in an RPMI 1640 medium containing 20% FBS for 3 days in preparation for subsequent culturing and seeding into a 96-well plate for the cell proliferation assay.
The OVCAR3 cells were seeded at a density of 3000 cells/100 μL/well into the 96-well cell plate, and then the plate was incubated in an incubator (37° C., 5% CO2) for 18 h. On the second day, drug treatment was started. Serially diluted test compound solutions (each drug starting at a concentration of 10 μM, diluted in DMSO, with a dilution ratio of 1:3, and nine gradient points for each drug) or DMSO (negative control) was added to the medium in the plate at 100 μL/well, and a blank group was set up with only medium, but no seeded cell strains. After the drug addition, the plate was incubated in the incubator for another 3 days (37° C., 5% CO2). On the fourth day, plate detection was performed. To each well, 100 μL of CellTiter-Glo reagent (Promega G9243) was added. The plate was shaken for 5 min and then left to stand at room temperature for 5 min. The chemical luminescence signal value of each well was determined using a microplate reader (PerkinElmer EnVision®2104). Cell proliferation inhibition rate=(1−(compound group−blank group)/(DMSO group−blank group))×100%. Then, the IC50 value of each compound was calculated using the GraphPad Prism 8 software.

Chain of recombinant protein KIF18A (kinesin domain: aa 1-467) (Q8NI77 1-467): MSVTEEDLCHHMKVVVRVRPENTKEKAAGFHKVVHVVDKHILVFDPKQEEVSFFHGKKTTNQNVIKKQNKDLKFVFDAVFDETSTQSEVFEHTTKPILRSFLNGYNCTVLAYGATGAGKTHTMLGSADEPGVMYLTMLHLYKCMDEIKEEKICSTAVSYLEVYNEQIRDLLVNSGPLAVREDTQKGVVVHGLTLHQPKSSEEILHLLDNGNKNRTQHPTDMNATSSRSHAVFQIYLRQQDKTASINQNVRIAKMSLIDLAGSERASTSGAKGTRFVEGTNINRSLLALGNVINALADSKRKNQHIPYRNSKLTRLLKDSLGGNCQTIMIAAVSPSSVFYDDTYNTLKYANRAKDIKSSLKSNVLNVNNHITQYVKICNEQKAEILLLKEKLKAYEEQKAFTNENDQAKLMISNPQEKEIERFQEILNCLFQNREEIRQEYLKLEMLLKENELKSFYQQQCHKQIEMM
Chain of recombinant protein KIF18A (kinesin domain: aa 1-467) (P02550 whole entry partner, the tested form may be a part): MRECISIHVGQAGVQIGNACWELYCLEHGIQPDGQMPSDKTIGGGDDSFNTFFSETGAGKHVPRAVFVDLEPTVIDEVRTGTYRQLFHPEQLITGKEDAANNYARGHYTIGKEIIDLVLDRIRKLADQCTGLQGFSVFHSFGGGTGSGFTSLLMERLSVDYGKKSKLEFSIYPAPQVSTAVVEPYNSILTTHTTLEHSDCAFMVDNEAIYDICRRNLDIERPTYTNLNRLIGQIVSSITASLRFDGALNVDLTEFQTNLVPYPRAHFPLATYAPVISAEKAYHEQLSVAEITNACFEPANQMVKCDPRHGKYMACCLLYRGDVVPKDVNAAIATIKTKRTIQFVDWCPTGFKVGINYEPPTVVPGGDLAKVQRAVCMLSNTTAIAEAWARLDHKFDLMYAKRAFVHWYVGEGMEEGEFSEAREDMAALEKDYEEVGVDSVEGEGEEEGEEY
Chain of recombinant protein KIF18A (kinesin domain: aa 1-467) (P02554 whole entry partner, the tested form may be a part): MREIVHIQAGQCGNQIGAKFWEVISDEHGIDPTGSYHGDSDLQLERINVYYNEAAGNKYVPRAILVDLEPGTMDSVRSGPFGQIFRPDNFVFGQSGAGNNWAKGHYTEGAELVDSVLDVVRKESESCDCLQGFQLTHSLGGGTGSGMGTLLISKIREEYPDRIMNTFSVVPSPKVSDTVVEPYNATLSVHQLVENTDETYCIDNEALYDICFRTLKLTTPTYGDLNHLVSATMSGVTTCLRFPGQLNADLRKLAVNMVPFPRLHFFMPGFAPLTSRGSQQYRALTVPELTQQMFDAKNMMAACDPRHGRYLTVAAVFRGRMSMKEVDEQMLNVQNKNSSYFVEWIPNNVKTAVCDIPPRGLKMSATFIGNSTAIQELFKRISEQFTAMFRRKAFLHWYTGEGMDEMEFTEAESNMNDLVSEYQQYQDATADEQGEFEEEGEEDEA

| Structure (SMILES) | IC50 [1] [µM] | IC50 (NIH:OVCAR-3 cells) [µM] |
| --- | --- | --- |
| Cc1cc(-c2cnn(-c3ccc(NS(=O)(=O)CCO)cc3N3CCC4(CC3)CC4)c2)nc(N2CCCC2)n1 [Example I-116, N-(4-(4-(6-Methyl-2-(pyrrolidin-1-yl)pyrimidin-4-yl)-1H-pyrazol-1-yl)-3-(6-azaspiro[2.5]octan-6-yl)phenyl)-2-hydroxyethane-1-sulfonamide] | 0.013 | 0.389 |
| Cc1cc(-c2cnn(-c3ccc(NS(=O)(=O)CCO)cc3N3CCC(C)(F)CC3)c2)nc(N2CCC(F)(F)CC2)n1 [Example I-117, N-(4-(4-(2-(4,4-Difluoropiperidin-1-yl)-6-methylpyrimidin-4-yl)-1H-pyrazol-1-yl)-3-(4-fluoro-4-methylpiperidin-1-yl)phenyl)-2-hydroxyethane-1-sulfonamide] | 0.009 | 0.365 |
| O=c1ccc(-c2cnn(-c3ccc(NS(=O)(=O)CCO)cc3N3CCC4(CC3)CC4)c2)nn1C1CC(F)(F)C1 [Example I-121, N-(4-(4-(1-(3,3-Difluorocyclobutyl)-6-oxo-1,6-dihydropyridazin-3-yl)-1H-pyrazol-1-yl)-3-(6-azaspiro[2.5]octan-6-yl)phenyl)-2-hydroxyethane-1-sulfonamide] | 0.003 | 0.056 |
| O=S(=O)(CCO)Nc1ccc(-n2cc(-c3ncnc(N4CCC(F)(F)CC4)n3)cn2)c(N2CCC3(CC2)CC3)c1 [Example I-130, N-(4-(4-(4-(4,4-Difluoropiperidin-1-yl)-1,3,5-triazin-2-yl)-1H-pyrazol-1-yl)-3-(6-azaspiro [2.5]octan-6-yl)phenyl)-2-hydroxyethanesulfonamide] | 0.009 | 0.142 |

Further compounds by falling IC50 [1], results first:

| IC50 [1] [µM] | IC50 (NIH:OVCAR-3 cells) [µM] | Structure (SMILES) |
| --- | --- | --- |
| 0.009 | 0.148 | O=S(=O)(CCO)Nc1ccc(-n2cc(-c3nc(N4CCC(F)(F)CC4)ncc3F)cn2)c(N2CCC3(CC2)CC3)c1 [Example I-129, N-(4-(4-(2-(4,4-Difluoropiperidin-1-yl)-5-fluoropyrimidin-4-yl)-1H-pyrazol-1-yl)-3-(6-azaspiro[2.5]octan-6-yl)phenyl)-2-hydroxyethane-1-sulfonamide] |
| 0.005 | 0.167 | Cc1cc(-c2cnn(-c3ccc(NS(=O)(=O)CCO)cc3N3CCC4(CC3)CC4)c2)nc(OCCC(F)(F)F)n1 [Example I-115, N-(4-(4-(6-Methyl-2-(3,3,3-trifluoropropoxy)pyrimidin-4-yl)-1H-pyrazol-1-yl)-3-(6-azaspiro[2.5]octan-6-yl)phenyl)-2-hydroxyethane-1-sulfonamide] |
| 0.002 | 0.184 | Cc1cc(-c2cnn(-c3ccc(NS(=O)(=O)CCO)cc3N3CCC4(CC3)CC4)c2)nc(N2CCCC(F)(F)C2)n1 [Example I-118, N-(4-(4-(2-(3,3-Difluoropiperidin-1-yl)-6-methylpyrimidin-4-yl)-1H-pyrazol-1-yl)-3-(6-azaspiro[2.5]octan-6-yl)phenyl)-2-hydroxyethane-1-sulfonamide] |
